# Source: patent US9193736B2, “PDE 10a inhibitors for the treatment of type II diabetes” (Janssen Pharmaceutica, NV, priority 2013, dated 2015)
# pIC50: −log10 of the molar value. Structures can show the parent of a compound that is named as a salt. Residues, ends and D or L forms follow the SMILES beside them. *: point of attachment. X1 = O=C(c1ccc(-c2c(C#Cc3ccc4ccccc4n3)nc3c(N4CCOCC4)ccnn23)cc1)*
# How the values were obtained:
# [1] = target: Rat recombinant PDE10a (rPDE10a) (Rattus norvegicus (Rat), UniProt Q9QYJ6); assay: In vitro assay PDE10a: rat recombinant PDE10a SPA with 3H-cAMP substrate, IC50; format: biochemical; settings: 60 nM cAMP, read-out: rPDE10a2 IC50
# Procedure: In Vitro Assay PDE10a Rat recombinant PDE10a (rPDE10a) was expressed in Sf9 cells using a recombinant rPDE10a baculovirus construct. Cells were harvested after 48 h of infection and the rPDE10a protein was purified by metal chelate chromatography on Ni-sepharose 6FF. Tested compounds were dissolved and diluted in 100% DMSO to a concentration 100 fold of the final concentration in the assay. […] The reaction was incubated for 60 min at rt. After incubation, the reaction was stopped with 20 μL of 17.8 mg/mL PDE SPA beads. […] For blank values the enzyme was omitted from the reaction and replaced by incubation buffer.
# [2] = target: Human recombinant PDE10A2 (Homo sapiens (Human), UniProt Q9Y233); assay: In vitro hPDE10a: human recombinant PDE10A2 scintillation proximity assay, IC50; format: biochemical; settings: human recombinant PDE10A2, SPA, 60 nM cAMP; read-out: hPDE10a2 IC50
# Procedure: Cells were harvested and the phosphodiesterase protein was purified by metal chelate chromatography on Ni-sepharose 6FF. The affinity of the compounds of Formula (I) for phophodiesterases (PDE) was measured by a scintillation proximity assay (SPA). PDE Yttrium Silicate SPA beads allow PDE activity to be measured by direct binding of the primary phosphate groups of non-cyclic AMP or GMP to the beads via a complex iron chelation mechanism. The amount of bound tritiated product ([^3H]-AMP) is measured by liquid scintillation counting. The compounds were dissolved and diluted in 100% DMSO in polystyrene plates to a concentration of 100-fold the final concentration in the assay. […] After incubation, the reaction was stopped with 20 μL of stop solution, consisting of PDE SPA beads (17.8 mg beads/mL in 18 mM zinc sulphate). […] To measure the low control, no enzyme was added to the reaction mixture. Data were calculated as the percentage of inhibition of total activity measured in the absence of test compound (% control). […] For compounds tested more than once, the data points were aggregated.
# Rat recombinant PDE10a (rPDE10a), sequence (Q9QYJ6 whole entry): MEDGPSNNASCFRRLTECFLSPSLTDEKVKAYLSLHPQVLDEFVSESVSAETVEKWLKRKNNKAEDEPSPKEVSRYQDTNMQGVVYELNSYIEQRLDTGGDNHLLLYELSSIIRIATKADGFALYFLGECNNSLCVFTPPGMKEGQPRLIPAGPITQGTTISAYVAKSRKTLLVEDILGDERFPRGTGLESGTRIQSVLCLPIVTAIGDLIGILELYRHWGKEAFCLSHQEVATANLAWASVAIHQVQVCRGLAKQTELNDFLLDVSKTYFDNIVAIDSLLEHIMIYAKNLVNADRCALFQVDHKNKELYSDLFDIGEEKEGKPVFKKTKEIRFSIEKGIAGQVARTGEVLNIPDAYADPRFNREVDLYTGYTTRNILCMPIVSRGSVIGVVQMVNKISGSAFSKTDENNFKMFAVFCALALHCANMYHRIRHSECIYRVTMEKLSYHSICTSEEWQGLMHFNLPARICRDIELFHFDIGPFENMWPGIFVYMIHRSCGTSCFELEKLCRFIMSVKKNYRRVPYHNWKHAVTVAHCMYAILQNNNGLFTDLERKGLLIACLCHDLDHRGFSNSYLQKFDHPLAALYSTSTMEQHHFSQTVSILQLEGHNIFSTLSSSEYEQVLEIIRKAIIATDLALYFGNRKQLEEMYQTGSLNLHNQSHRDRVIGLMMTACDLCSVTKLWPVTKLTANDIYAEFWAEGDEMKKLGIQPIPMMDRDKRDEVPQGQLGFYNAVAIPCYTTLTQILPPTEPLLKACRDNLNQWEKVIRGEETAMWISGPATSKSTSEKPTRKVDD
# Human recombinant PDE10A2, sequence (Q9Y233 267-1055): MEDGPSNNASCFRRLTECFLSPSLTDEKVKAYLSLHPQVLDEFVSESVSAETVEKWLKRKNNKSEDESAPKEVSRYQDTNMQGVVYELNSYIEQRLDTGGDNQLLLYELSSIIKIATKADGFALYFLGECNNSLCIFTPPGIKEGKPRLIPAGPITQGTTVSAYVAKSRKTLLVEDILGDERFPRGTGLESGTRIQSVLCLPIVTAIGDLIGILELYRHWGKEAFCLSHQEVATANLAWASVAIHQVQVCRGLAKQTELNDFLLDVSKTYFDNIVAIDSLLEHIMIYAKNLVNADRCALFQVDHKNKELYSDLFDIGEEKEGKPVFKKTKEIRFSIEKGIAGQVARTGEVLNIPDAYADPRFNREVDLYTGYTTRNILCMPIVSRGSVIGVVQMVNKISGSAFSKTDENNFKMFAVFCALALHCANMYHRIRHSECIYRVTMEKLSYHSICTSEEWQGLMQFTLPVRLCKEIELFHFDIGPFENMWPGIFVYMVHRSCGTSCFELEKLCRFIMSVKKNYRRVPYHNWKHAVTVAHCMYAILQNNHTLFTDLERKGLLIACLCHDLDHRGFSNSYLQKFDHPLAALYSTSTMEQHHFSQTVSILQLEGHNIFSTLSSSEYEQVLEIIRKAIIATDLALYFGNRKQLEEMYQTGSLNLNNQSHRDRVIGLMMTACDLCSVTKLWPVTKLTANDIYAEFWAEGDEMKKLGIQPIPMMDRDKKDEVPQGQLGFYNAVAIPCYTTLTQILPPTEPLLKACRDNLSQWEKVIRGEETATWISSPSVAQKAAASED
Compound,pIC50 [1],pIC50 [2]
"CN1CCN(c2ccc(-c3c(CN(C)c4ccc5ccccc5n4)nc4c(N5CCOCC5)ccnn34)cn2)CC1 [Cpd 15, N-Methyl-N-((3-(6-(4-methylpiperazin-1-yl)pyridin-3-yl)-8-morpholinoimidazo[1,2-b]pyridazin-2-yl)methyl)quinolin-2-amine trifluoroacetic acid salt]",6.57,6.17
"O=C(O)C1CCN(c2c(/C=C/c3ccc4ccccc4n3)nc3c(N4CCOCC4)ccnn23)CC1 [Cpd 131, (E)-1-(8-Morpholino-2-(2-(quinolin-2-yl)vinyl)imidazo[1,2-b]pyridazin-3-yl)piperidine-4-carboxylic acid trifluoroacetic acid salt]",8.30,8.15
"CS(=O)(=O)Nc1ccc(-c2c(/C=C/c3ccc4ccccc4n3)nc3c(N4CCOCC4)ccnn23)cc1 [compound 47, (E)-N-(4-(8-Morpholino-2-(2-(quinolin-2-yl)vinyl)imidazo[1,2-b]pyridazin-3-yl)phenyl)methanesulfonamide]",7.96,7.85
"O=c1ncn(-c2ccc(-c3c(/C=C/c4ccc5ccccc5n4)nc4c(N5CCOCC5)ccnn34)cc2F)[nH]1 [Cpd 158, (E)-1-(2-Fluoro-4-(8-morpholino-2-(2-(quinolin-2-yl)vinyl)imidazo[1,2-b]pyridazin-3-yl)phenyl)-1,2-dihydro-1,2,4-triazol-3-one]",–,8.30
"c1cncc(-c2c(COc3ccc4ccccc4n3)nc3c(N4CCOCC4)ccnn23)c1 [Cpd 2, 4-(3-(pyridin-3-yl)-2-((quinolin-2-yloxy)methyl)imidazo[1,2-b]pyridazin-8-yl)morpholine]",6.85,6.61
"CC(=O)NS(=O)(=O)c1ccc(-c2c(/C=C/c3ccc4ccccc4n3)nc3c(N4CCOCC4)ccnn23)cc1 [compound 36, (E)-N-((4-(8-Morpholino-2-(2-(quinolin-2-yl)vinyl)imidazo[1,2-b]pyridazin-3-yl)phenyl)sulfonyl)acetamide]",8.70,8.70
"Cn1nc(-c2ccc(-c3c(/C=C/c4ccc5ccccc5n4)nc4c(N5CCOCC5)ccnn34)cc2F)[nH]c1=O [Cpd 163, (E)-5-(2-Fluoro-4-(8-morpholino-2-(2-(quinolin-2-yl)vinyl)imidazo[1,2-b]pyridazin-3-yl)phenyl)-2-methyl-2H-1,2,4-triazol-3(4H)-one]",–,7.92
"O=c1[nH]nc(-c2ccc(-c3c(/C=C/c4ccc5ccccc5n4)nc4c(N5CCOCC5)ccnn34)cc2F)[nH]1 [Cpd 162, (E)-5-(2-Fluoro-4-(8-morpholino-2-(2-(quinolin-2-yl)vinyl)imidazo[1,2-b]pyridazin-3-yl)phenyl)-2H-1,2,4-triazol-3(4H)-one]",–,8.05
"CC(C)C[C@H](NC(=O)[C@H](C)N)C(=O)N[C@@H](C)C(=O)N[C@@H](CCCCNC(=O)c1ccc(-c2c(C#Cc3ccc4ccccc4n3)nc3c(N4CCOCC4)ccnn23)cc1)C(N)=O [Cpd 178, N—((S)-6-amino-5-((S)-2-((S)-2-((S)-2-aminopropanamido)-4-methylpentanamido)propanamido)-6-oxohexyl)-4-(8-morpholino-2-(quinolin-2-ylethynyl)imidazo[1,2-b]pyridazin-3-yl)benzamide] (H-ALAK(X1)-NH2)",–,7.96
"O=C(O)C1CCN(c2ccc(-c3c([C@H]4C[C@@H](c5ccc6ccccc6n5)C4)nc4c(N5CCOCC5)ccnn34)cc2)CC1 [compound 166, 1-(4-(8-Morpholino-2-((1s,3s)-3-(quinolin-2-yl)cyclobutyl)imidazo[1,2-b]pyridazin-3-yl)phenyl)piperidine-4-carboxylic acid]",–,7.03
"C[C@H](N)C(=O)N[C@@H](CCCCNC(=O)c1ccc(-c2c(C#Cc3ccc4ccccc4n3)nc3c(N4CCOCC4)ccnn23)cc1)C(N)=O [Cpd 179, N—((S)-6-amino-5-((S)-2-aminopropanamido)-6-oxohexyl)-4-(8-morpholino-2-(quinolin-2-ylethynyl)imidazo[1,2-b]pyridazin-3-yl)benzamide]",–,8.30
"O=C(O)c1ccc(-c2c(/C=C/c3ccc4c(n3)CCCC4)nc3c(N4CCOCC4)ccnn23)cn1 [Cpd 107, (E)-5-(8-morpholino-2-(2-(5,6,7,8-tetrahydroquinolin-2-yl)vinyl)imidazo[1,2-b]pyridazin-3-yl)picolinic acid trifluoroacetic acid salt]",–,7.92
"NCC(=O)N[C@@H](CCCCNC(=O)c1ccc(-c2c(C#Cc3ccc4ccccc4n3)nc3c(N4CCOCC4)ccnn23)cc1)C(N)=O [Cpd 181, (S)—N-(6-amino-5-(2-aminoacetamido)-6-oxohexyl)-4-(8-morpholino-2-(quinolin-2-ylethynyl)imidazo[1,2-b]pyridazin-3-yl)benzamide]",–,8.22
"c1ccc2nc(C3CC3c3cn4nccc(N5CCOCC5)c4n3)ccc2c1 (stereo not shown) [Cpd 161, 2-[2-(8-Morpholin-4-ylimidazo[1,2-b]pyridazin-2-yl)cyclopropyl]quinoline]",–,8.40
"NC(=O)[C@@H](N)CCCCNC(=O)c1ccc(-c2c(C#Cc3ccc4ccccc4n3)nc3c(N4CCOCC4)ccnn23)cc1 [Cpd 180, (S)—N-(5,6-diamino-6-oxohexyl)-4-(8-morpholino-2-(quinolin-2-ylethynyl)imidazo[1,2-b]pyridazin-3-yl)benzamide]",–,8.30

# Continued, values first:
pIC50 [1],pIC50 [2],Compound
8.70,9.00,"O=C(O)c1ccc(-c2c(CCc3ccc4ccccc4n3)nc3c(N4CCOCC4)ccnn23)cc1O [compound 64, 2-Hydroxy-4-(8-morpholino-2-(2-(quinolin-2-yl)ethyl)imidazo[1,2-b]pyridazin-3-yl)benzoic acid]"
7.21,7.05,"O=C(O)c1ccc(-c2c(/C=C/c3ccccn3)nc3c(N4CCOCC4)ccnn23)cc1 [Cpd 89, (E)-4-(8-Morpholino-2-(2-(pyridin-2-yl)vinyl)imidazo[1,2-b]pyridazin-3-yl)benzoic acid]"
8.70,8.30,"O=C(O)c1ccc(Nc2c(/C=C/c3ccc4ccccc4n3)nc3c(N4CCOCC4)ccnn23)cc1 [Cpd 138, (E)-4-((8-Morpholino-2-(2-(quinolin-2-yl)vinyl)imidazo[1,2-b]pyridazin-3-yl)amino)benzoic acid]"
–,8.70,"CC(C)(C(=O)O)c1ccc(-c2c([C@H]3C[C@H](c4ccc5ccccc5n4)C3)nc3c(N4CCOCC4)ccnn23)cc1 [Cpd 171, 2-Methyl-2-(4-(8-morpholino-2-((1R,3R)-3-(quinolin-2-yl)cyclobutyl)imidazo[1,2-b]pyridazin-3-yl)phenyl)propanoic acid]"
–,9.00,"O=C(O)[C@H]1C[C@@H]1c1ccc(-c2c([C@H]3C[C@H](c4ccc5ccccc5n4)C3)nc3c(N4CCOCC4)ccnn23)cc1 [Cpd 170, (1R,2S)-2-(4-(8-Morpholino-2-((1R,3S)-3-(quinolin-2-yl)cyclobutyl)imidazo[1,2-b]pyridazin-3-yl)phenyl)cyclopropanecarboxylic acid]"
–,7.89,"O=C(O)c1ccc(-c2c([C@H]3C[C@@H](c4ccc5ccccc5n4)C3)nc3c(N4CCOCC4)ccnn23)cc1 [compound 167, 4-(8-Morpholino-2-((1s,3s)-3-(quinolin-2-yl)cyclobutyl)imidazo[1,2-b]pyridazin-3-yl)benzoic acid trifluoroacetic acid salt]"
–,7.92,"O=C(O)c1ccc(-c2c([C@@H]3C[C@@H]3c3ccc4ccccc4n3)nc3c(N4CCOCC4)cc(Cl)nn23)cc1F [Cpd 165, 4-(6-Chloro-8-morpholino-2-((1R,2S)-2-(quinolin-2-yl)cyclopropyl)imidazo[1,2-b]pyridazin-3-yl)-2-fluorobenzoic acid trifluoroacetic acid salt]"
–,9.00,"O=C(O)c1ccc(-c2c([C@H]3C[C@H](c4ccc5ccccc5n4)C3)nc3c(N4CCOCC4)cc(Cl)nn23)cc1 [compound 160, 4-(6-Chloro-8-morpholino-2-((1r,3r)-3-(quinolin-2-yl)cyclobutyl)imidazo[1,2-b]pyridazin-3-yl)benzoic acid trifluoroacetic acid salt]"
–,9.00,"O=C(O)CC1(c2ccc(-c3c([C@H]4C[C@H](c5ccc6ccccc6n5)C4)nc4c(N5CCOCC5)ccnn34)cc2)COC1 [Cpd 174, 2-(3-(4-(8-Morpholino-2-((1R,3R)-3-(quinolin-2-yl)cyclobutyl)imidazo[1,2-b]pyridazin-3-yl)phenyl)oxetan-3-yl)acetic acid]"
–,9.00,"CC(C)(CC(=O)O)c1ccc(-c2c([C@H]3C[C@H](c4ccc5ccccc5n4)C3)nc3c(N4CCOCC4)ccnn23)cc1 [Cpd 172, 3-Methyl-3-{4-[8-morpholin-4-yl-2-(trans-3-quinolin-2-ylcyclobutyl)imidazo[1,2-b]pyridazin-3-yl]phenyl}butanoic acid]"
–,8.05,"CC(=O)c1ccc(-c2c(C#Cc3ccc4ccccc4n3)nc3c(N4CCOCC4)ccnn23)cc1 [Cpd 159, 1-(4-(8-Morpholino-2-(quinolin-2-ylethynyl)imidazo[1,2-b]pyridazin-3-yl)phenyl)ethanone]"
